Test results as given in patent US20210115071A1, “NANOSCALE METAL-ORGANIC FRAMEWORKS FOR ENHANCED TUMOR CHEMORADIATION” (Oregon State University, priority 2019, published 2021).

Assays:
[1] = Drug loading / encapsulation efficiency in Hf-BDC-PEG by HPLC; assay type: physicochemical; details: loaded into Hf-BDC-PEG
Procedure: (§1) Talazoparib and buparlisib were loaded into the Hf-BDC-PEG nMOFs by directly adding aliquots of the dissolved drugs (10 mg/mL in DMSO) at the desired concentrations into distilled water (2 mL) with the Hf-BDC-PEG nMOFs (approximately 5.0 mg) and stirred overnight. Unloaded drug(s) were removed by centrifugation and the supernatant was collected and quantified on HPLC to determine the concentration of unloaded talazoparib and buparlisib. A calibration curve for talazoparib and buparlisib was obtained using standard solutions at different concentrations and the curve was fitted with linear regression. Encapsulation efficiency was determined based on the ratio of the amount of drug loaded in Hf-BDC-PEG to the total amount added. The resulting nMOFs were dried under vacuum and stored until use. The influence of pH on drug release of talazoparib and buparlisib from the Hf-BDC-PEG nMOF was investigated using dialysis. TB@Hf-MOF (1.6 mg, 500 μL) was loaded into Slide-A-Lyzer MINI dialysis microtubes with a molecular weight cutoff of 2,000. The loaded samples were dialyzed against 12 mL of buffer (pH 5.5 or 7.4 PBS) with gentle stirring under ambient conditions. At designated time points of 0, 1, 2, 4, 24, 48, 72, 168, and 336 hours, sink samples (6 mL) were collected and replaced with fresh solution. Talazoparib and buparlisib concentrations were determined via HPLC, and drug release profiles were plotted as cumulative % of total drug release vs. time. All drug release measurements were performed in triplicate.

CT26.wt cells = assay: Free drug cytotoxicity and combination index; assay type: cell-based, Murine; details: for IC50 decrease in combination vs individual drug: 30:1 TMZ:Tal; for IC50: Mus musculus, CT26.WT, 72 hrs, combination as overall concentration
Procedure: Free drug cytotoxicity was investigated with Tal and TMZ as individual and combination agents. To determine the optimal TMZ:Tal ratio, CT26.wt cells were plated at 4×10^3 cells per well in a 96-well plate and allowed to settle overnight. Cells were then treated with TMZ (0, 10, 30, 150, 300, 600 or 1000 μM), Tal (0, 1, 5, 10, or 100 μM), or TMZ:Tal at each of the concentrations combined (ratios ranging from 1000:1 to 1:10) and incubated for 72 hrs. Combination indexes (CIs) were determined for all combinations (including only those points on the curve with Fa values between 0.1 and 0.9) using CompuSyn (ComboSyn Inc., Paramus, N.J., USA).

4T1 cells = details: free drug, previously reported by the inventors; read-out: individual agent IC50; cited from earlier work
[2] = Drug release from TB@Hf-BDC-PEG by dialysis; assay type: physicochemical; details: 25° C.
Procedure: as §1, with “Unloaded” for “Talazoparib and buparlisib were loaded into the Hf-BDC-PEG nMOFs by directly adding aliquots of the dissolved drugs (10 mg/mL in DMSO) at the desired concentrations into distilled water (2 mL) with the Hf-BDC-PEG nMOFs (approximately 5.0 mg) and stirred overnight. Unloaded”

[3] = cited from earlier work
[4] = Drug loading of Hf-BDC nMOF (encapsulation efficiency); assay type: physicochemical; details: loaded in Hf-BDC nMOF
Procedure: nMOFs were suspended in either 18 MΩ water (generation 1) or methanol (generation 2) at 5 mg/mL depending on colloidal stability. nMOF redispersed in water at 5 mg/mL was combined with fucoidan or dextran (both at 1 mg/mL in 18 MΩ water) at a 1:1 v/v ratio, sonicated for 1 hour, and filtered. nMOF redispersed in methanol at 5 mg/mL was combined with fucoidan or dextran (both at 1 mg/mL in 18 MΩ water) at a 1:1 v/v ratio, sonicated for 15 mins and stirred open overnight. After evaporation nMOFs were redispersed to 2.5 mg/mL nMOF in water and subsequently filtered. For drug loading, all steps remained the same except that drug dissolved in DMSO (Tal and/or TMZ or Cyanine 7.5) was added to the nMOF in water or methanol, sonicated for one hour, and washed by centrifuge twice (collecting the supernatant for quantification) before continuing with either surface coating procedure.

SMILES | Encapsulation efficiency (EE %) [1] | IC50 decrease in combination vs individual drug (CT26.wt cells) | IC50 (CT26.wt cells) | IC50 (4T1 cells) | drug released within the first 24 hours ([2]; pH 5.5, PBS) | drug release after two weeks incubation ([2]; pH 7.5, PBS) | drug released within the first 24 hours ([2]; pH 7.5, PBS) | log P [3] | average encapsulation efficiencies (EE) [4]
C[N+]1=C(C=CC2=CC(=CC=C3N(CCCCCC(=O)O)c4ccc5ccccc5c4C3(C)C)CCC2)C(C)(C)c2c1ccc1ccccc21.[Cl-] [Cy 7.5, cyanine 7.5 carboxylic acid] | approximately 98% |  |  |  |  |  |  |  | 
Cn1nnc2c(C(N)=O)ncn2c1=O [TMZ, temozolomide] |  | 3.3 fold | 34 µM |  |  |  |  |  | 
Nc1cc(C(F)(F)F)c(-c2cc(N3CCOCC3)nc(N3CCOCC3)n2)cn1 [buparlisib] | 14% |  |  | 4.7 µM | ~37% | ~100% | 24% | 2.13 | 
Cn1ncnc1[C@H]1c2n[nH]c(=O)c3cc(F)cc(c23)N[C@@H]1c1ccc(F)cc1 [talazoparib] | 77% | 14.6 fold | 5.1 µM | 1.4 µM | approximately 21% | approximately 85% | 11% | 2.93 | 54%
